US20160168185A1 (BAYLOR COLLEGE OF MEDICINE, priority 2013, published 2016)
pIC50: −log10 of the molar value. Where two headings read alike, the source gives them in different places.

Assays:
[1] = continuous infusion, subcutaneously implanted osmotic pump; cited from earlier work
[2] = tested on: MV4-11 MLL leukemia mouse model; conditions: cited from earlier work
[3] = tested on: histone methyltransferases CARM1, PRMT1 and SUV39H1
[4] = Human liver microsome stability assay; type: in vitro ADME
[5] = tested on: MDA-MB231; assay: Apoptosis of MDA-MB231, FACS with Annexin-V assay; conditions: 10-day treatment
[6] = tested on: claudin-1, -3, E-cadherin, Snail1, Zeb1, Zeb2 expression in MDA-MB231; assay: qPCR of cell-cell adhesion and EMT gene expression in MDA-MB231; type: cell-based
Text: Fourth, qPCR was used to find if treatment with SYC-522 affects gene expression of cell-cell adhesion and EMT genes. […].

[7] = tested on: panel of other HMTs; assay: Activity against a panel of other HMTs
[8] = tested on: H3K79 methylation in MV4-11 cells; assay: cells; conditions: Homo sapiens, MV4-11, 96 h, read-out: IC50 of H3K79 methylation inhibition
[9] = Human plasma stability assay; type: in vitro ADME
Protocol: For human plasma stability assay, to human plasma (500 μL) was added a test compound to a final concentration of 5 μM and incubated at 37° C. at approximately 60 rpm on an orbital shaker. Aliquots of 50 μL were taken from the reaction solution at 0, 15, 30, 45 and 60 minutes. The reaction was stopped by the addition of 6 volumes of cold acetonitrile. Samples were centrifuged at 20,000 g for 15 minutes to precipitate protein. An aliquot of 150 μL of the supernatant was used to determine the remaining amount of the test compound, using the same LC/MS/MS method described above. All experiments were performed in duplicate.

What does the source list for `CC(C)N(CCCNC(=O)Nc1ccc(C(C)(C)C)cc1)C[C@H]1O[C@@H](n2ccc3c(N)ncnc32)[C@H](O)[C@@H]1O` [EPZ004777]?
stable plasma drug concentration [1]: ~0.5 µM; in vivo efficacy in MLL leukemia mouse model in words [2]: weak in vivo activity; in vivo efficacy in MLL leukemia mouse model in words ([2]; listed as Compound 1): relatively weak in vivo efficacy

Which “activity against CARM1, PRMT1 and SUV39H1 (other HMTs) in words” value [3] does the source give for `Nc1ncnc2c1ncn2[C@@H]1O[C@H](CSCC[C@H](N)C(=O)O)[C@@H](O)[C@H]1O` [SAH, S-(5′-adenosyl)-L-homocysteine, reference compound] here?
Its value is “broad activity”.

Which “metabolic stability in human liver microsomes in words” value [4] does the source give for `CC(C)N(CCCNC(=O)Nc1ccc(C(C)(C)C)cc1)C[C@H]1O[C@@H](n2cnc3c(N)ncnc32)[C@H](O)[C@@H]1O` [SYC-522] here?
The value was “quickly degraded”.

What about the “apoptosis of MDA-MB231 at 2 μM” value ([5]; 2 μM) of the same molecule?
The value was “negligible apoptosis”.

What about the “apoptosis of MDA-MB231 at 10 μM” value ([5]; 10 μM) of the same molecule?
Its value is 18.4%.

What about the “Zeb1 and Zeb2 expression” value [6] of the same molecule?
The value was “unchanged or slightly increased”.

And the “expression of Snail1” value [6]?
The value was “large decreased expression”.

And the “increase of the expression of claudin-1, -3 and E-cadherin” value ([6]; dose-dependent)?
The value was at most 3.9 fold.

With `CNc1ncnc2c1ncn2[C@@H]1O[C@H](CSCC[C@H](N)C(=O)O)[C@@H](O)[C@H]1O` [compound 24, N6-methyl-SAH] as the molecule, how does the “activity against a panel of other HMTs in words” value [7] read?
The value was “inactive”.

For `CC(C)N(CCCNC(=O)Nc1ccc(C(C)(C)C)cc1)CC1=C[C@@H](n2cnc3c(N)ncnc32)[C@H](O)[C@@H]1O` [compound of Formula VII, 1-(3-((((3R,4S,5R)-3-adenosyl-4,5-dihydroxycyclopent-1-en-1-yl)methyl)-(isopropyl)amino)propyl)-3-(4-(tert-butyl)phenyl)urea], which “activity against CARM1, PRMT1 and SUV39H1 (other HMTs) in words” value [3] is on record?
Its value is “no activity”.

And the pIC50 [8]?
The pIC50 was about 6.70.

What about the “stability in human plasma in words” value [9] of the same molecule?
The value was “stable”.
